We go through 4 compounds from patent US10624905B2, “Corticosteroids for the treatment of joint pain” (Flexion Therapeutics, Inc., priority 2013, dated 2020).

In brackets after ≈: the same amount, converted by molar mass. Several values for one entry are separate records, joined by “and”; a condition that tells them apart may be missing. Equal entries are not always repeated. Where two headings read alike, the source gives them in different places.

The IC50 is the concentration that gives 50% inhibition.

The subject of one data set is HPA axis. The following applies: 20 mg intra-articular injection; day 3; transient; cited from earlier work.
For data set [1] the following is noted: cited from earlier work.
Data set [2] has as its system HPA axis (corticosterone levels). Put plainly: Inhibition of the HPA axis (corticosterone levels) in rats, PK-PD analysis. It counts as in vivo. The following applies: rat, PK-PD inhibitory model.
The test system of data set [3] is rat model of osteoarthritis of the knee (PGPS). Put plainly: Rat PGPS model of osteoarthritis of the knee: histopathology of the knees. The format is in vivo. The following applies: inflammatory milieu. On the procedure:
Efficacy of single intra-articular (IA) doses of FX006 (TCA in 75:25 PLGA formulation microparticles) and TCA IR (immediate release) was evaluated in a rat model of osteoarthritis of the knee via sensitization and challenge by peptidoglycan polysaccharide (PGPS). The model involves priming the animals with an intra-articular injection of PGPS in the right knee. The following day, any animals with no knee discomfort were eliminated from the test article groups and placed into the baseline group. Two weeks later, knee inflammation was reactivated by a tail vein injection of PGPS, 2.5 hr following IA dosing with FX006 or TCA IR at the doses selected (n=10/group). Differences in weight-bearing and gait (as a measure of joint pain experienced by the animals), histopathology, plasma PK etc. were evaluated.

For data set [4] the following is noted: TCA in rat plasma, i.v. 50 mg/kg bolus + 23 mg/kg/h infusion, cited from earlier work.
The test system of data set [5] is endogenous cortisol production. Nature of the data set: Steady-state doses and plasma concentrations for target suppression of endogenous cortisol production. Details: species or system human. The following applies: steady-state HPA axis suppression. On the procedure:
In this regard, it has been determined that standard doses of familiar corticosteroids, when examined from the viewpoint of steady-state HPA axis suppression (i.e., after desensitization has occurred), provide clinically useful benchmarks. For example, while oral prednisolone given at 20 mg QD produces a 73% cortisol suppression, even 5 mg QD (considered a “low dose”) is associated with a 40% suppression of endogenous cortisol production. […]
As a result of these clinical findings, the dose range to achieve clinically useful analgesia, with minimal or controlled modulation of the HPA axis, at steady state concentrations of various corticosteroids has been determined (Table 2). […]
In addition, with these continuous daily doses of intra-articular corticosteroids, it is possible to determine the related systemic plasma level concentrations (Table 3) that will produce the target cortisol inhibition and not beyond, this while retaining clinically important anti-inflammatory and analgesic activity within the joint. […] The levels calculated in Table 3 were purely hypothetical calculations based on human data with immediate release-level doses from the literature. […] A given level of plasma concentration may actually provide less inhibition that would have been predicted or calculated using the human IR levels from the literature. […]

For `CC(C)(C)CC(=O)OCC(=O)[C@@]12OC(C)(C)O[C@@H]1C[C@H]1[C@@H]3CCC4=CC(=O)C=C[C@]4(C)[C@@]3(F)[C@@H](O)C[C@@]12C` [triamcinolone hexacetonide], the HPA-axis suppression in the data set on HPA axis is recorded as 75%. In addition, the plasma levels in data set [1] (20 mg intra-articular injection, day 3) was 3 to 4 ng/mL.

Turning to `CC1(C)O[C@@H]2C[C@H]3[C@@H]4CCC5=CC(=O)C=C[C@]5(C)[C@@]4(F)[C@@H](O)C[C@]3(C)[C@]2(C(=O)CO)O1` [triamcinolone acetonide, 9α-Fluoro-11β,16α,17α,21-tetrahydroxy-1,4-pregnadiene-3,20-dione 16,17-acetonide], the “systemic TCA level at which Emax of corticosterone inhibition was achieved” value in data set [2] fell in the range of 50 to 80 ng/mL. In addition, in data set [2] (read-out: IC50 of corticosterone inhibition versus systemic TCA levels), the half-maximal inhibitory concentration (IC50) was around 1 ng/mL (≈ 2.3 nM). Further, the “contribution of the immediate release component to the plasma concentration” value in data set [1] (40 mg immediate release, intra-articular, by day 12) is listed as “less than 0.1 ng/ml”. Besides, in data set [1] (40 mg immediate release, intra-articular, day 1), the peak plasma concentration result is given as “approximately 10 ng/ml”. For the same compound, the effect on cartilage entry in data set [3] was “no deleterious effect on cartilage”.

In the case of Triamcinolone Acetonide Phosphate, in data set [4] (Mean ± SD), the CL is 0.937 ± 0.188 L/h/kg, the T1/2β was 2.71 ± 1.09 h, the Vc is recorded as 0.944 ± 0.314 L/kg and the fu is on record as 0.093 ± 0.015. The k21 in data set [4] (Mean ± SD) is on record as 0.937 ± 0.261 h^1. Moreover, in data set [4] (individual rats 1-3), the CL was 1.15 L/h/kg and 0.790 L/h/kg and 0.872 L/h/kg; the T1/2β was 1.55 h and 3.71 h and 2.87 h; the Vc was 0.684 L/kg and 0.856 L/kg and 1.29 L/kg; the fu was 0.084 and 0.110 and 0.085. Besides, in data set [4] (individual rats 1-3), the k12 is 1.64 h^1 and 1.79 h^1 and 1.59 h^1; the k21 was 1.04 h^1 and 0.640 h^1 and 1.13 h^1.

As for `C[C@]12C=CC(=O)C=C1CC[C@@H]1[C@@H]2[C@@H](O)C[C@@]2(C)[C@H]1CC[C@]2(O)C(=O)CO` [prednisolone, 11β,17,21-trihydroxypregna-1,4-diene-3,20-dione], in data set [5] (oral 5 mg QD), the “suppression of endogenous cortisol production” value worked out at 40%. Further, in data set [5] (oral 20 mg QD), the cortisol suppression was 73%.
